# Assay results published in BindingDB's records for PubMed 36846363 (Al-Ahliyya Amman University, 2023).
# Experiment: Antagonist activity at P2Y12 receptor in human blood platelets assessed as inhibition of ADP-induced platelet aggregation compound preincubated with blood for 5 mins prior to ADP addition by electrode aggregometry assay
row,Structure (SMILES),IC50
1,O=C(CCC(=O)Nc1ccc2[nH]c3ccccc3c(=O)c2c1)Nc1ccc2[nH]c3ccccc3c(=O)c2c1,6.49 µM
2,O=C(CCCCCCCC(=O)Nc1ccc2[nH]c3ccccc3c(=O)c2c1)Nc1ccc2[nH]c3ccccc3c(=O)c2c1,35 µM
3,CCOC(=O)c1cc(NC(=O)c2cc(NC(=O)c3cc(NC(=O)c4c(-c5ccccc5)noc4C)cn3C)cn2C)cn1C,4.2 µM
